Source: ChEMBL document CHEMBL6115000, “Discovery of a first-in-class PROTAC degrader of histone lysine demethylase KDM4” (Eur J Med Chem, 2025)
Active and inactive are the calls of the source. The calls are words filed in the database; no cut-off is given here.

Legend:
[1] = Induction of apoptosis in human KYSE-150 cells assessed as necrotic cells at 12.3 nM incubated for 72 hrs by Annexin V-PE/7-AAD staining based flow cytometry (reference value: 4.28 %); assay type: functional
[2] = Induction of cell cycle arrest in human KYSE-150 cells assessed as accumulation of cells at G2/M phase at 111.1 nM incubated for 24 hrs by flow cytometry (reference value: 21.64 %); assay type: functional
[3] = target: T1, von Hippel-Lindau disease tumor suppressor/Lysine-specific demethylase 4A (Homo sapiens, UniProt O75164+P40337); experiment: PROTAC activity at VHL/KDM4A in human KYSE-150 cells assessed as induction of KDM4A degradation upto 1000 nM measured after 24 hrs by Western blot analysis relative to control; assay type: cell-based; settings: KYSE-150 cell line
T1 sequence (O75164 2-1064 limits assumed): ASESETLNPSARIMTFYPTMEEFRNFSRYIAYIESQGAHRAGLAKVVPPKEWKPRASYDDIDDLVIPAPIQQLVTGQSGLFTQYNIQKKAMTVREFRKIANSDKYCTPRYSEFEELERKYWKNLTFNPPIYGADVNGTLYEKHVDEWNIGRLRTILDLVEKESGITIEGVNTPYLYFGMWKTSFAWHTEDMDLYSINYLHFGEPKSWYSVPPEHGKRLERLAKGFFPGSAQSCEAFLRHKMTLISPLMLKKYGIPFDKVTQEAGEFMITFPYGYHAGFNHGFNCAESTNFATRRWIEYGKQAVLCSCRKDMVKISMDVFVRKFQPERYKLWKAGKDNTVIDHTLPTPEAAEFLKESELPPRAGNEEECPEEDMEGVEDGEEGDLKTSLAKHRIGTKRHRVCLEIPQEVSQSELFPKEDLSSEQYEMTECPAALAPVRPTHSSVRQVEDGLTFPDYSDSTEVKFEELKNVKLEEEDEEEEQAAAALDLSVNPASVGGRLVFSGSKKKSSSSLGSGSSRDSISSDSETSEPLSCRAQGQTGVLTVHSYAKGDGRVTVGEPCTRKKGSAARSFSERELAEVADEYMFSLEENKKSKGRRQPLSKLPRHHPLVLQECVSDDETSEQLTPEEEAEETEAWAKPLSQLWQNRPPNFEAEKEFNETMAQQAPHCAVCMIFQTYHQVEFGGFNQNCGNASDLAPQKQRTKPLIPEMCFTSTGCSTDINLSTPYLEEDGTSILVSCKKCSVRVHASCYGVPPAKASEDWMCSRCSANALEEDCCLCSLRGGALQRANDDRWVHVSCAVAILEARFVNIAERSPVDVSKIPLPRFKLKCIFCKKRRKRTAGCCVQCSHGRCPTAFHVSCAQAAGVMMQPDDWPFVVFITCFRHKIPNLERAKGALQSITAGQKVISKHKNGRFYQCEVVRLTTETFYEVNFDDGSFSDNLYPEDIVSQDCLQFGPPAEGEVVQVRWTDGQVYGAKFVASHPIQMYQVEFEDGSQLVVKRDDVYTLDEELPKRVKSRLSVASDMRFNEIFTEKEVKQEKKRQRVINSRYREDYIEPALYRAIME
T1 sequence (P40337 whole entry partner): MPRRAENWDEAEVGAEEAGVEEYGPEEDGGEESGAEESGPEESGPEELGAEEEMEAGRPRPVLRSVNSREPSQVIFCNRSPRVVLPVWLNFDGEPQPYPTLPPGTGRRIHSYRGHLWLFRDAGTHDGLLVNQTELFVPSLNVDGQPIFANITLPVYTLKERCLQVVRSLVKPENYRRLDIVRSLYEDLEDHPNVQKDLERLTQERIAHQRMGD

[4] = Induction of cell cycle arrest in human KYSE-150 cells assessed as accumulation of cells at S pahse at 1000 nM incubated for 24 hrs by flow cytometry (reference value: 13.15 %); assay type: functional
[5] = Induction of apoptosis in human KYSE-150 cells assessed as late apoptotic cells at 1000 nM incubated for 72 hrs by Annexin V-PE/7-AAD staining based flow cytometry (reference value: 5.98 %); assay type: functional
[6] = Induction of apoptosis in human KYSE-150 cells assessed as late apoptotic cells at 333.3 nM incubated for 72 hrs by Annexin V-PE/7-AAD staining based flow cytometry (reference value: 5.98 %); assay type: functional
[7] = target: T1, von Hippel-Lindau disease tumor suppressor/Lysine-specific demethylase 4A; experiment: PROTAC activity at VHL/KDM4A in human KYSE-150 cells assessed as induction of KDM4A degradation at 50 nM incubated for 24 hrs in presence of MLN4924 by Western blot analysis; assay type: cell-based; settings: KYSE-150 cell line
[8] = Induction of apoptosis in human KYSE-150 cells assessed as necrotic cells at 111.1 nM incubated for 72 hrs by Annexin V-PE/7-AAD staining based flow cytometry (reference value: 4.28 %); assay type: functional
[9] = Induction of apoptosis in human KYSE-150 cells assessed as viable cells at 1000 nM incubated for 72 hrs by Annexin V-PE/7-AAD staining based flow cytometry (reference value: 84.47 %); assay type: functional; settings: read-out: Activity
[10] = target: T2, von Hippel-Lindau disease tumor suppressor/Lysine-specific demethylase 4C (Homo sapiens, UniProt Q9H3R0+P40337); experiment: PROTAC activity at VHL/KDM4C in human KYSE-150 cells assessed as induction of KDM4C degradation upto 1000 nM by Western blot analysis; assay type: cell-based; settings: KYSE-150 cell line
T2 sequence (P40337 whole entry, looked up): as the sequence (P40337 whole entry partner) above
T2 sequence (Q9H3R0 whole entry, looked up): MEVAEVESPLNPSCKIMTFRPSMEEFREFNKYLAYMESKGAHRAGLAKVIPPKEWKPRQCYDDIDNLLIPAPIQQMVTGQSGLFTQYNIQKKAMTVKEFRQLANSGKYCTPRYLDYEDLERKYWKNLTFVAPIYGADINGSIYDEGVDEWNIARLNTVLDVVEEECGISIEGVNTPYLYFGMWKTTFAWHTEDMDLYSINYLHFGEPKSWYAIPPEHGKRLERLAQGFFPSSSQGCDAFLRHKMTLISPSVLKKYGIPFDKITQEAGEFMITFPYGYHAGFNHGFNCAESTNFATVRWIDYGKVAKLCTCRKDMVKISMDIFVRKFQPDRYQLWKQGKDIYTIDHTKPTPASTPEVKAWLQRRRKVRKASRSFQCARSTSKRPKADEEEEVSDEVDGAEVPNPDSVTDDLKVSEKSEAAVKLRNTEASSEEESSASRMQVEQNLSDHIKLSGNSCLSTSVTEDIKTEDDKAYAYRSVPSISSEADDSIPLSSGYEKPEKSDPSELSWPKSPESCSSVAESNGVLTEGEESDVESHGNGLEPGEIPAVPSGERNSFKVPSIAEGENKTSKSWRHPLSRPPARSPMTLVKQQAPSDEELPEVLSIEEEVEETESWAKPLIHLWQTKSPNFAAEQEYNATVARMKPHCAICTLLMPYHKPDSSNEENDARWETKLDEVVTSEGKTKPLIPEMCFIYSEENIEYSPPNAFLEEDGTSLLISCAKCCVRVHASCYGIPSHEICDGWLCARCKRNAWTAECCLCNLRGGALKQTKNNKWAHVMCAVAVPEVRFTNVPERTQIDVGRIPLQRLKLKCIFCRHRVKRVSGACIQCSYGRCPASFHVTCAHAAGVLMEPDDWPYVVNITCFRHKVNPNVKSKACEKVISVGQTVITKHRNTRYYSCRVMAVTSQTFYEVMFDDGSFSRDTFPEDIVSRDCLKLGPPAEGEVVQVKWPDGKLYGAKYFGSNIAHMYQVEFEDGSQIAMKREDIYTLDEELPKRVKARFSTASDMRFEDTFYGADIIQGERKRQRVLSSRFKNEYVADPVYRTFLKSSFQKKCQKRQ

[11] = Induction of cell cycle arrest in human KYSE-150 cells assessed as accumulation of cells at S pahse at 37 nM incubated for 24 hrs by flow cytometry (reference value: 13.15 %); assay type: functional
[12] = Induction of cell cycle arrest in human KYSE-150 cells assessed as accumulation of cells at G2/M phase at 333.3 nM incubated for 24 hrs by flow cytometry (reference value: 21.64 %); assay type: functional
[13] = Induction of cell cycle arrest in human KYSE-150 cells assessed as accumulation of cells at S pahse at 333.3 nM incubated for 24 hrs by flow cytometry (reference value: 13.15 %); assay type: functional
[14] = target: von Hippel-Lindau disease tumor suppressor/Lysine-specific demethylase 4B (Homo sapiens, UniProt P40337+O94953); experiment: PROTAC activity at VHL/KDM4B in human KYSE-150 cells assessed as induction of KDM4B degradation upto 1000 nM by Western blot analysis; assay type: cell-based; settings: KYSE-150 cell line
Chain of von Hippel-Lindau disease tumor suppressor/Lysine-specific demethylase 4B (O94953 whole entry, looked up): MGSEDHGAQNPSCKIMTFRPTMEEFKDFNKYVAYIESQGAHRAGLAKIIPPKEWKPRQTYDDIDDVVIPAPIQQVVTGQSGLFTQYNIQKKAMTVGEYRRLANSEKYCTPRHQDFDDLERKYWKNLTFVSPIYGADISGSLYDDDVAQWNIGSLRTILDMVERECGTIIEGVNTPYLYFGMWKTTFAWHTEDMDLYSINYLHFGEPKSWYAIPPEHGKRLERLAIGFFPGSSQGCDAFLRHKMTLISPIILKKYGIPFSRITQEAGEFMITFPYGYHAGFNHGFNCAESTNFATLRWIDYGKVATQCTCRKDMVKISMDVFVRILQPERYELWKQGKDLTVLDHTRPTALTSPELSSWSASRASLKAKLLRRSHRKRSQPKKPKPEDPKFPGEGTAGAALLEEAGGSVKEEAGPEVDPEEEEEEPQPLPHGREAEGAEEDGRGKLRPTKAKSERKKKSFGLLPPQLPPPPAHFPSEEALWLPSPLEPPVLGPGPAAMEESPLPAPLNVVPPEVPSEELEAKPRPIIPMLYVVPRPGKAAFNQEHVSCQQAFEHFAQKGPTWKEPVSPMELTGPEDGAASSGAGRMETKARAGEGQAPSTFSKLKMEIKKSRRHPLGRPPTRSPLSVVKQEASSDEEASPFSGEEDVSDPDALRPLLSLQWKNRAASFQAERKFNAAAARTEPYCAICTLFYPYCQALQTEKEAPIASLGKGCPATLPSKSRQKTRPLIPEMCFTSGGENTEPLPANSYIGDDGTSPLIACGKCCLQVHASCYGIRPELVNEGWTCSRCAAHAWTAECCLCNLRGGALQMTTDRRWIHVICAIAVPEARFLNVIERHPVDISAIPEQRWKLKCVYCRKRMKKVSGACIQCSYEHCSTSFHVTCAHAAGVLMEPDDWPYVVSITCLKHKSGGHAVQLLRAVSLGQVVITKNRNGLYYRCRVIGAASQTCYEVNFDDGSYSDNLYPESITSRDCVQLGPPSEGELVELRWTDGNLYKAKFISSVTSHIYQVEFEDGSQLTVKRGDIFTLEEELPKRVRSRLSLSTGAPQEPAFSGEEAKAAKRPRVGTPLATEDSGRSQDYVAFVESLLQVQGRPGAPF
Chain of von Hippel-Lindau disease tumor suppressor/Lysine-specific demethylase 4B (P40337 whole entry, looked up): as the sequence (P40337 whole entry partner) above

[15] = Induction of cell cycle arrest in human KYSE-150 cells assessed as accumulation of cells at G2/M phase at 1000 nM incubated for 24 hrs by flow cytometry (reference value: 21.64 %); assay type: functional
[16] = target: T1, von Hippel-Lindau disease tumor suppressor/Lysine-specific demethylase 4A; experiment: PROTAC activity at VHL/KDM4A in human KYSE-150 cells assessed as induction of KDM4A degradation at 0.1 uM incubated for 12 hrs by Western blot analysis relative to control; assay type: cell-based; settings: KYSE-150 cell line
[17] = target: T1, von Hippel-Lindau disease tumor suppressor/Lysine-specific demethylase 4A; experiment: PROTAC activity at VHL/KDM4A in human KYSE-150 cells assessed as induction of KDM4A degradation upto 1000 nM by Western blot analysis; assay type: cell-based; settings: KYSE-150 cell line
[18] = Induction of cell cycle arrest in human KYSE-150 cells assessed as accumulation of cells at G0/G1 phase at 37 nM incubated for 24 hrs by flow cytometry (reference value: 65.08 %); assay type: functional
[19] = Induction of cell cycle arrest in human KYSE-150 cells assessed as accumulation of cells at G2/M phase at 37 nM incubated for 24 hrs by flow cytometry (reference value: 21.64 %); assay type: functional
[20] = Induction of apoptosis in human KYSE-150 cells assessed as viable cells at 111.1 nM incubated for 72 hrs by Annexin V-PE/7-AAD staining based flow cytometry (reference value: 84.47 %); assay type: functional; settings: read-out: Activity
[21] = target: T1, von Hippel-Lindau disease tumor suppressor/Lysine-specific demethylase 4A; experiment: PROTAC activity at VHL/KDM4A in human KYSE-150 cells assessed as increase in H3K36me3 level incubated for 24 hrs by Western blot analysis; assay type: cell-based; settings: KYSE-150 cell line, dose <= 1000.0 nM
[22] = target: T2, von Hippel-Lindau disease tumor suppressor/Lysine-specific demethylase 4C; experiment: PROTAC activity at VHL/KDM4C in human KYSE-150 cells assessed as induction of KDM4C degradation upto 1000 nM measured after 24 hrs by Western blot analysis relative to control; assay type: cell-based; settings: KYSE-150 cell line
[23] = Induction of cell cycle arrest in human KYSE-150 cells assessed as accumulation of cells at G0/G1 phase at 333.3 nM incubated for 24 hrs by flow cytometry (reference value: 65.08 %); assay type: functional
[24] = target: T1, von Hippel-Lindau disease tumor suppressor/Lysine-specific demethylase 4A; experiment: PROTAC activity at VHL/KDM4A in human KYSE-150 cells assessed as fold increase in H3K36me3 level at 1000 nM incubated for 24 hrs by Western blot analysis relative to control; assay type: cell-based; settings: KYSE-150 cell line
[25] = Induction of apoptosis in human KYSE-150 cells assessed as viable cells at 37 nM incubated for 72 hrs by Annexin V-PE/7-AAD staining based flow cytometry (reference value: 84.47 %); assay type: functional; settings: read-out: Activity
[26] = target: T1, von Hippel-Lindau disease tumor suppressor/Lysine-specific demethylase 4A; experiment: PROTAC activity at VHL/KDM4A in human KYSE-150 cells assessed as induction of KDM4A degradation at 1 uM incubated for 12 hrs by Western blot analysis relative to control; assay type: cell-based; settings: KYSE-150 cell line
[27] = Induction of apoptosis in human KYSE-150 cells assessed as early apoptotic cells at 12.3 nM incubated for 72 hrs by Annexin V-PE/7-AAD staining based flow cytometry (reference value: 5.27 %); assay type: functional
[28] = Induction of apoptosis in human KYSE-150 cells assessed as late apoptotic cells at 37 nM incubated for 72 hrs by Annexin V-PE/7-AAD staining based flow cytometry (reference value: 5.98 %); assay type: functional
[29] = Induction of apoptosis in human KYSE-150 cells assessed as viable cells at 12.3 nM incubated for 72 hrs by Annexin V-PE/7-AAD staining based flow cytometry (reference value: 84.47 %); assay type: functional; settings: read-out: Activity
[30] = Induction of cell cycle arrest in human KYSE-150 cells assessed as accumulation of cells at S pahse at 111.1 nM incubated for 24 hrs by flow cytometry (reference value: 13.15 %); assay type: functional

Cc1ncsc1-c1ccc([C@H](C)NC(=O)[C@@H]2C[C@@H](O)CN2C(=O)[C@@H](NC(=O)CCCCCCCCCOc2ccc(N(C)c3ccc4c(c3)OCC[C@H]4CNc3cnccc3C(=O)O)cc2)C(C)(C)C)cc1
Activity [1]: 6.02% | Activity [2]: 12.48% | Emax [3]: 83.3% | Activity [4]: 13.1% | Activity [5]: 47.86% | Activity [6]: 48.79% | Activity [7]: inactive | Activity [8]: 5.52% | viability at 1 µM [9]: 17.9% | Activity [10]: Time-dependent-effect | Activity [11]: 14.84% | Activity [12]: 13.01% | Activity [13]: 14.06% | Activity [14]: Time-dependent-effect | Activity [15]: 12.05% | Activity [16]: 44.9% | Activity [17]: Time-dependent-effect | Activity [18]: 71.68% | Activity [19]: 13.29% | viability at 0.1111 µM [20]: 18.2% | Activity [21]: Active | Emax [22]: 77.8% | Activity [23]: 72.82% | FC [24]: 2 | viability at 0.037 µM [25]: 30.6% | Activity [26]: 57.2% | Activity [27]: 10.63% | Activity [28]: 43.51% | viability at 0.0123 µM [29]: 64.4% | Activity [30]: 14.35%
